Data as given in US20250304587A1, “WEE1 INHIBITOR, PREPARATION THEREFOR AND USE THEREOF” (JIANGSU TASLY DIYI PHARMACEUTICAL CO., LTD., priority 2022, published 2025).
Read-outs that look alike come from different tables or passages of the source.

What was measured:
CYP2D6 = CYP2D6 (Homo sapiens (Human), UniProt P10635); assay: Cytochrome P450 inhibition (fluorescence), CYP2D6; format: in vitro ADME
Experimental: (§1) Enzymatic experiments were performed to quantify the inhibition of CYP450 enzyme activity of each isoform of CYP450 by small molecule inhibitors through fluorescence generated by the oxidation of the substrate by cytochrome P450. […] The Solution B composition used for the experiment was: 40 U/mL G6PDH (Sigma-aldrich, Cat #G6378). The substrate mix was 0.05× Solution A, 0.01× Solution B, 50 mM Potassium Phosphate, 0.01 mM BOMCC/0.01 mM EOMCC/0.001 mM DBOMF. […] The data were analyzed and processed using GraphPad Prism 6 software to obtain IC50 values.

CYP2C8 = CYP2C8 (Homo sapiens (Human), UniProt P10632); assay: Cytochrome P450 inhibition (fluorescence), CYP2C8; format: in vitro ADME
Experimental: as §1

[1] = Metabolic stability in liver microsomes, dog; format: in vitro ADME
Experimental: (§2) Microsomes were taken out from the −80° C. refrigerator, rapidly melted in a 37° C. water bath and placed on ice until ready to use. The test article was diluted with DMSO to prepare a 10 mM stock solution, and then diluted with acetonitrile to a 0.5 mM secondary stock solution. […] NADPH was diluted with Buffer C to a working solution of 6 mM for the starter solution. An acetonitrile solution containing an internal standard was prepared as the precipitant, and Verapamil-HCl was chosen as the internal standard at a concentration of 4 ng/ml. […] A separate plate with pointed bottom wells, noted as a precipitation plate, was added with 135 μL precipitant per well; 0 h samples were transferred to the plate after 10 min incubation and 15 μL of starter solution was added; the plate was placed on ice before centrifugation. The diluted starter solution was added in sufficient quantity to the dispensing plate to facilitate the multichannel pipette aspiration operation. The reaction was carried out on a warm incubation shaker and 15 μL of starter solution/sample is added to the plate using a multichannel pipette. The reaction was mixed with a slight shake to initiate the reaction, which was accurately timed and recorded using a timer; After the reaction time had elapsed, all the solution in the plate was aspirated using the multichannel pipette and added to the precipitation plate to terminate the reaction at that point in time. After all reactions had been terminated, the plates were shaken for ten minutes on a plate shaker at 600 rpm to precipitate the protein. The plate was centrifuged at 4° C. for 15 minutes at maximum rpm. 80 μL of supernatant was taken, 320 μL of pure water was added and mixed for LC-MS analysis.

plasma protein [2] = assay: Plasma protein binding (equilibrium dialysis), mouse; conditions: mouse plasma, 1 μM, 5 h dialysis
[3] = Metabolic stability in liver microsomes, rat; format: in vitro ADME
Experimental: as §2

HUVEC cells = assay: Cell Titer-Glo anti-proliferation, normal cells HUVEC; format: cell-based
Experimental: (§3) Compound solutions of different concentration gradients were prepared. […] The cell growth group without compound was used as a positive control (maximum signal control) and the medium was used as a negative control (minimum signal control), while ensuring that the final level of DMSO in each reaction well was 0.2%. After removing the medium from the 384-well plate, 25 μl of the configured compound at different concentrations was transferred into the well plate and the compound and cells were incubated in the cell incubator at 37° C. with 5% CO2 for 3 days.
(§4) The 384-well plates were removed from the cell incubator and allowed to equilibrate for 1 h to room temperature. 25 μl of Cell Titer-Glo assay was added to each well, lysed on a shaker for 2 min and then read out (Luminescence) using a BMG PHERAStar after 10 min incubation. Calculate the inhibition rate from the luminescence signal.
(§5) to calculate the rate of inhibition of the cells by different concentrations of the compounds. The IC50 of the compound on cell activity inhibition was calculated by fitting a log(inhibitor) vs. response-Variable slope model to GraphPad Prism 6. The fitted equation was: Y=Bottom+(Top-Bottom)/(1+10^((Log IC50−X)*HillSlope)), where Y represents the rate of inhibition and X represents the concentration of the known compound after Log.
(§6) B. Evaluation of the Anti-Proliferative Effect of Compounds by the Cell Titer-Glo Method on Normal Cells HUVEC and HK2.
(§7) The test method is the same as the anti-proliferative activity evaluation of tumor cells.

OVCAR-3 cells = assay: Cell Titer-Glo anti-proliferation, OVCAR-3 cells; format: cell-based; conditions: 3 days, read-out: Anti-proliferative activity OVCAR-3 (IC50 class)
Procedure, shortened: (§8)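 Each line was exposed to graded compound concentrations for 3 days at 37 °C, 5% CO2, with final DMSO at 0.2%. Viability was measured by Cell Titer-Glo luminescence, with untreated cells as the maximum and medium as the minimum signal. IC50 came from a variable-slope log(inhibitor)-response fit.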

[4] = Metabolic stability in liver microsomes, monkey; format: in vitro ADME
Experimental: as §2

CYP1A2 = CYP1A2 (Homo sapiens (Human), UniProt P05177); assay: Cytochrome P450 inhibition (fluorescence), CYP1A2; format: in vitro ADME
Experimental: as §1

[5] = Metabolic stability in liver microsomes, human; format: in vitro ADME
Experimental: as §2, with “Test Example 3: Evaluation of the Metabolic Stability of Liver Microsomes (Mouse and Human) In Vitro Microsomes” for “Microsomes”

[6] = Metabolic stability in liver microsomes, mouse; format: in vitro ADME
Experimental: as §2, with “Test Example 3: Evaluation of the Metabolic Stability of Liver Microsomes (Mouse and Human) In Vitro Microsomes” for “Microsomes”

Wee1 protein = Wee1 protein (Homo sapiens (Human), UniProt P30291); assay: TR-FRET binding of compound to Wee1 protein and Tracer 178; conditions: Tracer 178, read-out: IC50, inhibitory activity against Wee1 kinase
Experimental: First, solutions of the compounds in different concentration gradients were prepared. The compounds were dissolved in DMSO and the compounds were diluted 4 folds with a total of 10 dose points and 2 parallel replicates for each concentration.
The IC50 for inhibition of enzyme activity by the compounds was then calculated using GraphPad Prism 6 and fitted with a log (inhibitor) vs. response-Variable slope mode. The fitting equation was: Y=Bottom+(Top−Bottom)/(1+10^((Log IC50−X)*HillSlope)), where Y represents the percentage of residual enzyme activity known and X represents the known concentration of compound after the logarithm.

HT-29 cells = assay: Cell Titer-Glo anti-proliferation, HT-29 cells; format: cell-based, human; conditions: 3 days, read-out: Anti-proliferative activity HT-29 (IC50 class)
Procedure, shortened: as §8

CYP3A4 = CYP3A4 (Homo sapiens (Human), UniProt P08684); assay: Cytochrome P450 inhibition (fluorescence), CYP3A4; format: in vitro ADME
Experimental: as §1

HK2 cells = assay: Cell Titer-Glo anti-proliferation, normal cells HK2; format: cell-based
Experimental: as §3, §4, §5, §6, §7

BxPC3 cells = assay: Cell Titer-Glo anti-proliferation, BxPC3 cells; format: cell-based, human; conditions: 3 days, read-out: Anti-proliferative activity BxPC3 (IC50 class)
Procedure, shortened: as §8

CYP2C9 = CYP2C9 (Homo sapiens (Human), UniProt P11712); assay: Cytochrome P450 inhibition (fluorescence), CYP2C9; format: in vitro ADME
Experimental: as §1

plasma protein [7] = assay: Plasma protein binding (equilibrium dialysis), rat; format: in vitro ADME; conditions: 1 μM, 5 h dialysis
CYP2C19 = CYP2C19 (Homo sapiens (Human), UniProt P33261); assay: Cytochrome P450 inhibition (fluorescence), CYP2C19; format: in vitro ADME
Experimental: as §1

CYP 2B6 = CYP 2B6 (Homo sapiens (Human), UniProt P20813); assay: Cytochrome P450 inhibition, CYP2B6; format: in vitro ADME
Experimental: as §1

hERG potassium channel = hERG potassium channel (Homo sapiens (Human), UniProt Q12809); assay: hERG potassium channel inhibition, patch clamp in CHO hERG cells
Experimental: The cell line used for the patch clamp assay was a 10th generation CHO cell overexpressing hERG potassium channel cDNA. CHO hERG cells were cultured in Petri dishes or flasks at 37° C. in a 5% CO2 incubator. Cells were dropped onto circular slides 24-48 hours prior to electrophysiological experiments and cultured in cell culture medium and used for experiments after the cells had been adhered.
Cell culture medium (purchased from Invitrogen) Composition: • Ham's F12 medium • 10% (v/v) heat inactivated FBS • 100 μg/ml Hygromycin B (thaumatin) • 100 μg/ml Geneticin (Genomycin, G418)
Compound powders are dissolved in the extracellular solution and are subjected to a routine 5 to 10 minute sonication and shaking to ensure complete dissolution of the compound.
The final concentrations of compounds used for electrophysiological assays were 5, 20 μM and the final concentration of DMSO was 0.1%.
Cell membrane currents were recorded using a HEKA EPC-10 USB patch-clamp amplifier (HEKA Elektronik, Germany). • 1) A coverslip with a large number of uniformly growing individual CHO hERG cells on its surface was taken. Place in a continuous recording cell on an inverted microscope, perfused with extracellular fluid (approximately 1 ml per minute) and recorded continuously, waiting for the current to stabilize. • 2) Record HERG channel currents for individual cells using standard whole cell recording mode. The membrane voltage is first clamped at −80 mV and the cell is given a +20 mV stimulus for 5 s to activate the hERG potassium channel, then repolarized to −50 mV for 5 s to generate an outward tail current, which is continuously perfused until the current is stable, at which point the peak tail current is the control current value. • 3) The extracellular solution containing the drug to be tested was then perfused and recorded until the inhibitory effect of the drug on the hERG current reached a steady state, at which point the peak tail current was the post-drug current value. • 4) The cells are again perfused with the extracellular solution until the hERG current returns to or approaches the level prior to the addition of the drug, then the perfusion can be continued to test other concentrations or drugs. One or more compound or drug concentrations may be tested on each cell. • 5) Cisapride (C4740-10 mg, Sigma) is used as a positive control in the experiment to ensure that the cells used respond properly.

[8] = Toxicity in rats after 14 consecutive days of administration, survival; conditions: 75 mg/kg qd by gavage, 14 days
[9] = Saturated solubility in buffer at different pH; format: physicochemical
Experimental: The compound was placed in a buffer solution and shaken at constant temperature for 24 h. […] Chromatographic conditions: C18 column, mobile phase A: 0.02 M potassium dihydrogen phosphate:acetonitrile=90:10, mobile phase B: acetonitrile; V: 1.0 ml/min, T: 35° C., λ: 210 nm.

Caco-2 cells = assay: Membrane permeability in Caco-2 model; format: in vitro ADME
Experimental: Caco-2 cells were purchased from the American Model Tissue Cell Collection (Rockville, MD). The cell culture medium was modified Eagle's medium (MEM) containing 10% inactivated fetal bovine serum and 1% non-essential amino acids. […] The cells were incubated for 21-28 days after inoculation for transport experiments and the apparent permeability (Papp) of Lucifer Yellow was used to characterize and verify the compactness of the cell monolayer. […] After the incubation, dilute the samples on the apical side and basolateral side, and the concentrations of compounds on the apical and basolateral sides were detected by LC-MS/MS, and the concentrations of the compounds were quantified by standard curve.

Chain of CYP2C8 (P10632 whole entry): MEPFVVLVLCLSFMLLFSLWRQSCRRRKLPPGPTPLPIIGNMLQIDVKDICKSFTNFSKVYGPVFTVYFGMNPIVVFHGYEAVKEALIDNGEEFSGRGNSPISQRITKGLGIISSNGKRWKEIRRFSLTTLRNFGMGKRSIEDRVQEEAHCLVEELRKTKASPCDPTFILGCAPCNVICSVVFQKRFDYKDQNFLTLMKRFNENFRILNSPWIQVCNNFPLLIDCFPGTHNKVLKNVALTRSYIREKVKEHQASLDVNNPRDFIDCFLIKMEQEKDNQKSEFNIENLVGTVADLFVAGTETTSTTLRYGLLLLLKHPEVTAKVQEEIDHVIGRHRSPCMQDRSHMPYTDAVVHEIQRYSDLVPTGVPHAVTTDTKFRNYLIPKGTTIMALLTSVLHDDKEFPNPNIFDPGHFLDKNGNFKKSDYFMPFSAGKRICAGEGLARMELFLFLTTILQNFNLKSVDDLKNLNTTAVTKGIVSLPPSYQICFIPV
Chain of Wee1 protein (P30291 whole entry): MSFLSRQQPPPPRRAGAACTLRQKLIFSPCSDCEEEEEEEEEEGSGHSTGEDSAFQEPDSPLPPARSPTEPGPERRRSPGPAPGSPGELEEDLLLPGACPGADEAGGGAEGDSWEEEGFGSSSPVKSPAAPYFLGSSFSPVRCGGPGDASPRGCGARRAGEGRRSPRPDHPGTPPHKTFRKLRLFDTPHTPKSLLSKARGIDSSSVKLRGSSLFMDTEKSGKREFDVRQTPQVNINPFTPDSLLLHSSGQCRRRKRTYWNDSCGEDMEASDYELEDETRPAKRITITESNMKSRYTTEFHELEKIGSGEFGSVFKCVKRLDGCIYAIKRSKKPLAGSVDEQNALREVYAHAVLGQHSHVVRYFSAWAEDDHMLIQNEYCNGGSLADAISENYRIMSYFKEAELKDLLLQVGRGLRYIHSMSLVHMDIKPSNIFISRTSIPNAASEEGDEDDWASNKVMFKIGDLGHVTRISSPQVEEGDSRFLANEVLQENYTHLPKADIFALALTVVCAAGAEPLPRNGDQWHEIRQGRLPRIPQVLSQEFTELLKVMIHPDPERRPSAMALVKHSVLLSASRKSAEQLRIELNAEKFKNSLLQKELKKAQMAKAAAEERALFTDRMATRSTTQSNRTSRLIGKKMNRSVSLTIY
Chain of hERG potassium channel (Q12809 whole entry): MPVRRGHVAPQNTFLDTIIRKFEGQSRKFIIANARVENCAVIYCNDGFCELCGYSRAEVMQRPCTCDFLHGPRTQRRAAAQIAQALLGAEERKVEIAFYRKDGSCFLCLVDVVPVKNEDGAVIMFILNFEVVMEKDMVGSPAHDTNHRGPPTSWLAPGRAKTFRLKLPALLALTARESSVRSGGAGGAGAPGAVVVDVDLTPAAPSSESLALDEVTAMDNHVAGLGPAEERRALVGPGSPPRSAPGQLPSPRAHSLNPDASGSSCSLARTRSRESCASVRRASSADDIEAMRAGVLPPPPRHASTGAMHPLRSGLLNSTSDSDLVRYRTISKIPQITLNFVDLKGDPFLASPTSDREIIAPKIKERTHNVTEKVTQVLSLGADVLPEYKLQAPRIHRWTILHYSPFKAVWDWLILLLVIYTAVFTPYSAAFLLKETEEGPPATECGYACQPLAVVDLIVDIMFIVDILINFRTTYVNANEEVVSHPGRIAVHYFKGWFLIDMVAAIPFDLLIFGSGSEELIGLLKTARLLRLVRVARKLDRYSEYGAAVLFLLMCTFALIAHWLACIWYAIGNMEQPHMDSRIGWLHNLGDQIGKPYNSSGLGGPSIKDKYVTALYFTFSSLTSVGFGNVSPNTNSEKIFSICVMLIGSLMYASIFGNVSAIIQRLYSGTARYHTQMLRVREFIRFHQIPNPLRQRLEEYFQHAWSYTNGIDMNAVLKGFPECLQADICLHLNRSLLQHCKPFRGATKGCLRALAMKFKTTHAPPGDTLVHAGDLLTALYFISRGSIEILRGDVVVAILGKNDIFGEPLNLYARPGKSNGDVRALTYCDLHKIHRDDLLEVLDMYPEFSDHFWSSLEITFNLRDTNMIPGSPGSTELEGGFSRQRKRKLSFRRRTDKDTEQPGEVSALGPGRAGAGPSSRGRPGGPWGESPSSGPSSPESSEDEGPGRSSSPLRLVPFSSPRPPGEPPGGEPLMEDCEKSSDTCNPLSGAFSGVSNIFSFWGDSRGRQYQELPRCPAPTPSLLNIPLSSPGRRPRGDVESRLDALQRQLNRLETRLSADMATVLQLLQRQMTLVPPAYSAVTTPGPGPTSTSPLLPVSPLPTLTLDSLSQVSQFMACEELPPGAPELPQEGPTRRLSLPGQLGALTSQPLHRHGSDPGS
Chain of CYP2D6 (P10635 whole entry, canonical isoform): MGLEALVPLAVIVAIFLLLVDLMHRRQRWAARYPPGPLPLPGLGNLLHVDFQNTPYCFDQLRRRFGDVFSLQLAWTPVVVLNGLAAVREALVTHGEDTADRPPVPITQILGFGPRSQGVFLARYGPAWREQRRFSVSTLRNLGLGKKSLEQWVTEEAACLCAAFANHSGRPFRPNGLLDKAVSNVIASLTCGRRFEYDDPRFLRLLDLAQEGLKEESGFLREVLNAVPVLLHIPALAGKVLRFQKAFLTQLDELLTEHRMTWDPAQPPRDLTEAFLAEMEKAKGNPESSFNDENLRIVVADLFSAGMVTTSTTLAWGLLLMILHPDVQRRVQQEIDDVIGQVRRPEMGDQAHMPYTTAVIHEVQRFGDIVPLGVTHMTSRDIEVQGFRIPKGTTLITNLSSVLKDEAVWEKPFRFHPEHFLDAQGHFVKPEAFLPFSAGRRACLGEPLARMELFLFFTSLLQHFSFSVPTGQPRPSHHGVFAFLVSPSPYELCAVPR
Chain of CYP3A4 (P08684 whole entry): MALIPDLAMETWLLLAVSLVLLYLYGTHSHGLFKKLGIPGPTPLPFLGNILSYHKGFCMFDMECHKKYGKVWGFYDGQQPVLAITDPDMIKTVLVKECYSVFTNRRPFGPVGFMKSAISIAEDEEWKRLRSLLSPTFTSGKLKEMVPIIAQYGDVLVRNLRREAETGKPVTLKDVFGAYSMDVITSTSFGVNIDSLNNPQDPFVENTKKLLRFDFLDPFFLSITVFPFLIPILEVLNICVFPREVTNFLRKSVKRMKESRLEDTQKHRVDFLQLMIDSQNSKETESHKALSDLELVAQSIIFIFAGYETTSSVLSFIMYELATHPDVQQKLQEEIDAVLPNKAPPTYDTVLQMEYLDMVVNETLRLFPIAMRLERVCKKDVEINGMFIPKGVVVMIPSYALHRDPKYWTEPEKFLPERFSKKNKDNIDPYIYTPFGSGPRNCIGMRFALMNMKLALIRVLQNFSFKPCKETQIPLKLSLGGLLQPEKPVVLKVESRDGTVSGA
Chain of CYP2C9 (P11712 whole entry): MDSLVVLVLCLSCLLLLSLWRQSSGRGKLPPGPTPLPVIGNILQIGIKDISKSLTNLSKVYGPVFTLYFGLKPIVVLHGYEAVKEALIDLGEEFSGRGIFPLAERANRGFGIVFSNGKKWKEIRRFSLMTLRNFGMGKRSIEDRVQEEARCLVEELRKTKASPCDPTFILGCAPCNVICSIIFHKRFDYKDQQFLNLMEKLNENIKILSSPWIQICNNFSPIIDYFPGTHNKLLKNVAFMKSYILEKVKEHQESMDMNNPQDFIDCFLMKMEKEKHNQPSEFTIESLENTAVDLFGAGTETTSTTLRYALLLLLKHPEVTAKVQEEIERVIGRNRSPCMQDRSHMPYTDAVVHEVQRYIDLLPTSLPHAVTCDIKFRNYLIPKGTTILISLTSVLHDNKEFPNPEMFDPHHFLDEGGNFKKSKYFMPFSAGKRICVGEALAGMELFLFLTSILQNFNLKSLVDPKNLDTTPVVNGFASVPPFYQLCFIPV
Chain of CYP1A2 (P05177 whole entry): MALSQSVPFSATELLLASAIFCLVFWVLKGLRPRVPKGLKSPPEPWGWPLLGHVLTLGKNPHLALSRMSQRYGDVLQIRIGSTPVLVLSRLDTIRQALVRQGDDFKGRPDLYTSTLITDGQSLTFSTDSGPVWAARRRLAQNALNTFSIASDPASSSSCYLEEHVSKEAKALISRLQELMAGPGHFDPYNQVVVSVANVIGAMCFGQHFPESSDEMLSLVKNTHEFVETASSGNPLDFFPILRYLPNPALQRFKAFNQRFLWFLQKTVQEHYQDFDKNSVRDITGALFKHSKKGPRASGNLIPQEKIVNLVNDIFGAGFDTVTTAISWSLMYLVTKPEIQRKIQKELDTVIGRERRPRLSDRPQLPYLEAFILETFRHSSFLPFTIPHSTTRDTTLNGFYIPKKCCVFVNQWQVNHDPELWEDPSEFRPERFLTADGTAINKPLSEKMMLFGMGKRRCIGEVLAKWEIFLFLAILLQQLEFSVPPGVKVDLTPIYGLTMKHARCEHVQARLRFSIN
Chain of CYP2C19 (P33261 whole entry): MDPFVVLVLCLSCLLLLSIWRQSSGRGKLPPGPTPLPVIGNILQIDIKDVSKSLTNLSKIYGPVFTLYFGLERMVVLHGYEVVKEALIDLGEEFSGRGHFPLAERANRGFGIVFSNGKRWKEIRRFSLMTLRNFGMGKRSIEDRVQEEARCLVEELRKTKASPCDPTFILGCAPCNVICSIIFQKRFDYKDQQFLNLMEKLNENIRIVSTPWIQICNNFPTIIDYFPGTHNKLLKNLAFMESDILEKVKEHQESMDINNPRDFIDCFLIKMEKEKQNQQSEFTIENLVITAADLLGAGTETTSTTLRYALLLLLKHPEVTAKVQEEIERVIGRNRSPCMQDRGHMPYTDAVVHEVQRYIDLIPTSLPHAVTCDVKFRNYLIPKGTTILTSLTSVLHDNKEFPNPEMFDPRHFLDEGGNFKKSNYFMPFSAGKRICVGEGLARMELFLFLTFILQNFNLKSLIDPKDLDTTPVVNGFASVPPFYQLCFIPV

Structure (SMILES)	IC50 (CYP2D6; read-out: IC50 CYP2D6) [nM]	IC50 (CYP2C8; read-out: IC50 CYP2C8) [nM]	T1/2 liver microsomes Dog [1] [h]	Plasma Protein binding (PPB) Mouse (plasma protein [2]) [%]	T1/2 liver microsomes Rat [3] [h]	IC50 (HUVEC cells) [nM]	IC50 (OVCAR-3 cells) [nM]	T1/2 liver microsomes Monkey [4] [h]	IC50 (CYP1A2) [nM]	T1/2 liver microsomes Human [5] [h]	T1/2 liver microsomes Mouse [6] [h]	IC50 (Wee1 protein) [nM]	IC50 (HT-29 cells) [nM]	IC50 (CYP3A4; read-out: IC50 CYP3A4) [nM]	IC50 (HK2 cells) [nM]	IC50 (BxPC3 cells) [nM]	IC50 (CYP2C9; read-out: IC50 CYP2C9) [nM]	Plasma Protein binding (PPB) Rat (plasma protein [7]) [%]	hERG Inhibition (hERG potassium channel; test concentration 5 μM) [%]	hERG Inhibition (hERG potassium channel; test concentration 20 μM) [%]	also measured
C=CCn1c(=O)c2cnc(Nc3ccc(N4CC5CC(C4)N5C)cc3)nc2n1-c1ccc2c(n1)[C@@](C)(O)C1(CC2)CC1 [Compound 7a]	> 10000	> 10000	1.541	97.21	0.357	> 10000	100 to 1000	0.2625	> 10000	1.057	1.209	5 to 10	100 to 1000	> 10000	670	100 to 1000	> 10000	94.82	–	–	–
C=CCn1c(=O)c2cnc(Nc3ccc(N4CCC5(CCN(C)CC5)CC4)cc3)nc2n1-c1ccc2c(n1)[C@H](O)C1(CC2)CC1 [Compound 37b]	> 10000	> 10000	–	–	–	> 10000	100 to 1000	–	> 10000	–	–	5 to 10	100 to 1000	> 10000	1530	100 to 1000	> 10000	–	–	–	IC50 (CYP2C19; read-out: IC50 CYP2C19): > 10000 nM; IC50 (CYP 2B6): > 10000 nM
C=CCn1c(=O)c2cnc(Nc3ccc(N4CCN(C)CC4)cc3)nc2n1-c1ccc2c(n1)C(C)(O)C1(CC1)C2 (stereo not drawn) [Compound 3]	–	–	–	87.75	–	–	1000 to 2000	–	–	–	–	5 to 10	100 to 1000	–	–	1000 to 2000	–	–	–	–	IC50 (CYP2D6): > 10000 nM; IC50 (CYP2C8): > 10000 nM; IC50 (CYP2C19): > 10000 nM; IC50 (CYP1A2; read-out: IC50 CYP1A2): > 10000 nM; IC50 (CYP3A4): > 10000 nM; IC50 (CYP2C9): > 10000 nM
C=CCn1c(=O)c2cnc(Nc3ccc(N4CCC5(CCN(C)CC5)CC4)cc3)nc2n1-c1ccc2c(n1)[C@](C)(O)C1(CC2)CC1 (racemic) [Compound 44]	> 10000	> 10000	0.7135	98.46	>2	–	100 to 1000	0.5015	> 10000	1.296	1.05	–	100 to 1000	> 10000	–	100 to 1000	> 10000	96.98	77.68 ± 4.16	91.56 ± 2.72	–
C=CCn1c(=O)c2cnc(Nc3ccc(N4CCN(C)CC4)cc3)nc2n1-c1ccc2c(n1)[C@@](O)(CC)CC2 [ZnC3, reference compound]	–	–	–	–	–	> 10000	100 to 1000	–	–	–	–	10 to 100	100 to 1000	–	340	100 to 1000	–	–	7.38 ± 1.59	18.05 ± 7.58	Survival of Rats ([8]; female rats): 1/7; Survival of Rats ([8]; male rats): 2/7; Saturated solubility pH 5.0 ([9]; pH 5): 0.35 mg/mL; Saturated solubility pH 6.5 ([9]; pH 6.5): 0.59 mg/mL; Saturated solubility pH 7.4 ([9]; pH 7.4): 0.68 mg/mL; Efflux Ration (Caco-2 cells; Caco2): 35.74; Papp A to B (Caco-2 cells; Caco2, 10 μM, 90 min): 0.42 10^−6 cm/s; Papp B to A (Caco-2 cells; Caco2, 10 μM, 90 min): 15.01 10^−6 cm/s
